Measured values as given in PubChem BioAssay (NCI).
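96-well plates; 48 h exposure; 5 concentrations. Endpoints by linear interpolation between flanking doses. Not reached: highest tested concentration assigned. At the GI50, growth is halved. TGI denotes the concentration required for complete inhibition of growth.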

Assays:
Test in all cases: DTP human tumour cell line panel, 48 h
ACHN renal = tested on: ACHN renal
MOLT-4 leukemia = tested on: MOLT-4 leukemia
SK-MEL-5 melanoma = tested on: SK-MEL-5 melanoma
KM12 colon = tested on: KM12 colon
A549 NSCLC = tested on: A549 NSCLC
SF-539 CNS = tested on: SF-539 CNS
HOP-62 NSCLC = tested on: HOP-62 NSCLC
MDA-MB-231 breast = tested on: MDA-MB-231 breast
PC-3 prostate = tested on: PC-3 prostate
T-47D breast = tested on: T-47D breast

Compound | TGI (ACHN renal) [µM] | TGI (MOLT-4 leukemia) [µM] | TGI (SK-MEL-5 melanoma) [µM] | TGI (KM12 colon) [µM] | TGI (A549 NSCLC) [µM] | TGI (SF-539 CNS) [µM] | TGI (HOP-62 NSCLC) [µM] | GI50 (MDA-MB-231 breast) [µM] | TGI (MDA-MB-231 breast) [µM] | GI50 (ACHN renal) [µM] | GI50 (SK-MEL-5 melanoma) [µM] | GI50 (SF-539 CNS) [µM] | GI50 (HOP-62 NSCLC) [µM] | GI50 (PC-3 prostate) [µM] | TGI (PC-3 prostate) [µM] | TGI (T-47D breast) [µM] | GI50 (MOLT-4 leukemia) [µM] | GI50 (KM12 colon) [µM] | GI50 (A549 NSCLC) [µM] | GI50 (T-47D breast) [µM]
C=C1COC(/C=C(\C)CC/C=C(\C)CCl)C1 (stereo unspecified) | > 100 | > 100 | > 100 | > 100 | > 100 | > 100 | > 100 |  |  |  |  |  |  |  |  |  |  |  |  | 
COc1ccc(C2CC(c3cc(OC)c(OC)c(OC)c3)=NN2C(C)=O)cc1OCC(=O)Nc1nc2ccc(C(F)(F)F)cc2s1 (stereo unspecified) | 7.13 |  | > 100 |  |  | 3.42 | 5.58 | 3.11 | 8.96 | 2.48 | 3.56 | 1.75 | 2.2 | 2.92 | > 100 |  |  |  |  | 
c1ccc(SC(CCCCC(Sc2ccccc2)Sc2ccccc2)Sc2ccccc2)cc1 | > 100 | > 100 | > 100 | > 100 | > 100 | > 100 | > 100 |  |  |  |  |  |  |  |  |  |  |  |  | 
CCCCCCCCCCCC(=O)OCCOCCOCCOCCOCCOCc1ccc(OC)cc1 | > 100 | > 100 | > 100 | > 100 | > 100 |  | > 100 |  |  |  |  |  |  |  |  |  |  |  |  | 
O=c1cc(-c2ccccc2)[nH]c2cc(O)ccc12 | 53.7 | 54.7 | 83.4 | 50.7 | 81.8 | > 100 | 70.9 |  |  |  |  |  |  |  |  |  |  |  |  | 
C=CCOC1OC(CO[Si](C)(C)C(C)(C)C)C(OCc2ccccc2)C(OCc2ccccc2)C1OCc1ccccc1 (stereo unspecified) | > 100 | > 100 | > 100 | > 100 | > 100 |  | 48.3 |  |  |  |  |  |  |  | > 100 | > 100 |  |  |  | 
O=S(=O)(c1ccccc1)C(CN1CCCCC1)S(=O)(=O)c1ccccc1 | > 100 | > 100 |  | > 100 | > 100 | > 100 | > 100 |  |  |  |  |  |  |  |  |  |  |  |  | 
COc1ccc(C2=C(Cl)c3cc(OC)c(OC)cc3C2Cl)cc1OC (stereo unspecified) | 38.3 | 15.4 | 28.5 |  | 42 |  | 36.6 |  |  |  |  |  |  |  |  |  |  |  |  | 
CN(C)c1ccc(C=C2C(=O)OC(C)(C)OC2=O)cc1Br | > 100 | > 100 | > 100 | > 100 | > 100 | > 100 | > 100 |  |  |  |  |  |  |  |  |  |  |  |  | 
Cc1cc(N(CCC#N)CCC#N)ccc1/C=C/C(=O)Nc1cccc(Cl)c1 | > 100 | > 100 | > 100 | > 100 | > 100 | > 100 | > 100 |  |  |  |  |  |  |  |  |  |  |  |  | 
COc1ccc(N=c2ssc3c(=S)ssc23)cc1 | > 100 | 26.9 | 57.1 | > 100 | > 100 | 96.2 | > 100 |  |  |  |  |  |  |  |  |  |  |  |  | 
CSCC1CC(c2ccc(Cl)cc2)=NO1 (stereo unspecified) | > 100 | > 100 | > 100 | > 100 | > 100 | > 100 | > 100 |  |  |  |  |  |  |  |  |  |  |  |  | 
CC(=O)C1=CSC2[C@H](NC(=O)Cc3ccccc3)C(=O)N2C1C(=O)OC(c1ccccc1)c1ccccc1 (stereo partly specified) |  | > 100 | > 100 | > 100 | > 100 | > 100 | > 100 |  |  |  |  |  |  |  |  |  |  |  |  | 
CCOC1(COP(=O)(OCc2ccccc2)OCc2ccccc2)COC(COP(=O)(OCc2ccccc2)OCc2ccccc2)(OCC)CO1 (stereo unspecified) | > 100 | > 100 | > 100 | > 100 | > 100 | > 100 | > 100 |  |  |  |  |  |  |  |  |  |  |  |  | 
O=C1OC(CCCl)(c2ccccc2)CC1CN1CCOCC1 (stereo unspecified) | > 100 | 48 | 41.7 | 47.7 | > 100 | 70.1 | > 100 |  |  |  |  |  |  |  |  |  |  |  |  | 
c1ccc2c(c1)c(NCCCCN1CCCCC1)cc1c3ccccc3c(NCCCCN3CCCCC3)cc21 | 30.5 | > 100 | 31.4 | 8.98 | 56.6 | 37.5 | 26 | 17.2 | 35.7 | 15.5 | 15.1 | 16.5 | 10.9 | 13.4 | 78.5 |  | 6.96 | 2.97 | 21.8 | 
CCN1CCC(CCOC)(CN2c3ccccc3Sc3ccc(Cl)cc32)C1 (stereo unspecified) | 3.44 |  | 3.07 | 3.43 | 3.56 | 3.51 | 3.13 | 1.86 | 3.67 | 1.78 | 1.69 | 1.76 | 1.67 | 2.03 | 4.74 | 4.6 |  | 1.79 | 1.9 | 2.05
CCOC(=O)C1=C(O)C(=O)c2ccsc2C1=O | > 100 | > 100 | > 100 | > 100 | > 100 | > 100 | > 100 |  |  |  |  |  |  |  |  |  |  |  |  | 
COc1ccc(OC)c(NC(=O)CCC/C(CC(=O)c2ccc(O)c(OC)c2)=N\NC(=O)C[N+](C)(C)C)c1 | > 100 | > 100 | > 100 | > 100 | > 100 | > 100 | > 100 |  |  |  |  |  |  |  |  |  |  |  |  | 
CN(C)c1nc(=Nc2ccc3ccccc3c2)ss1 | > 100 | 20.9 | 29.9 | > 100 | > 100 | > 100 | > 100 |  |  |  |  |  |  |  |  |  |  |  |  | 
CCOC(=O)C(=O)Nc1c(CC)cccc1C(C)C | > 100 |  |  | > 100 | > 100 | > 100 | > 100 |  |  |  |  |  |  |  |  |  |  |  |  | 
Cc1cc2c(C)n(Cc3ccc(Cl)cc3Cl)nc2c(C#N)c1C | > 100 | > 100 | > 100 | > 100 | > 100 | > 62.5 | 49.7 |  |  |  |  |  |  |  |  |  |  |  |  | 
COc1cc(C(=O)C/C(CCC(=O)Nc2ccccc2[N+](=O)[O-])=N\NC(=O)CC#N)ccc1O | > 100 | > 100 | > 100 | > 100 | > 100 | > 100 | > 100 |  |  |  |  |  |  |  |  |  |  |  |  | 
Cn1c(/C=C(\O)c2ccc(Cl)cc2)nc2ccccc21 | > 100 | > 100 | 92.4 | > 100 | 69.4 | > 100 |  |  |  |  |  |  |  |  |  |  |  |  |  | 
CCOc1ccc2nc(NC(=O)c3c/c(=N\NC(=O)C[N+](C)(C)C)c4ccc(O)cc4o3)sc2c1 | 13.8 | 5.74 | 1.85 | 19.2 | 7.84 | 11 |  |  |  |  |  |  |  |  |  |  |  |  |  | 
CCOC(=O)c1nc2ccc([N+](=O)[O-])cc2c2c1CCO2 | > 100 | > 100 | > 100 | > 100 | > 100 | > 100 | > 100 |  |  |  |  |  |  |  |  |  |  |  |  | 
